Assay [1] has as its target T1, human DNA topoisomerase IIα (Homo sapiens, UniProt P11388).
T1 construct: gene TOP2A
In words: topo IIα-mediated kDNA decatenation and supercoiled pBR322 relaxation gel assays; HTS relaxation assay; cleavage assay (not a poison). In kind it is biochemical.

Assay [2] deals with T1, human DNA topoisomerase IIα. Description: topo IIα cleavage assay (linear plasmid accumulation), HTS relaxation and decatenation assays. In kind it is biochemical.

Structures are written as SMILES.

T1 sequence (P11388 whole entry): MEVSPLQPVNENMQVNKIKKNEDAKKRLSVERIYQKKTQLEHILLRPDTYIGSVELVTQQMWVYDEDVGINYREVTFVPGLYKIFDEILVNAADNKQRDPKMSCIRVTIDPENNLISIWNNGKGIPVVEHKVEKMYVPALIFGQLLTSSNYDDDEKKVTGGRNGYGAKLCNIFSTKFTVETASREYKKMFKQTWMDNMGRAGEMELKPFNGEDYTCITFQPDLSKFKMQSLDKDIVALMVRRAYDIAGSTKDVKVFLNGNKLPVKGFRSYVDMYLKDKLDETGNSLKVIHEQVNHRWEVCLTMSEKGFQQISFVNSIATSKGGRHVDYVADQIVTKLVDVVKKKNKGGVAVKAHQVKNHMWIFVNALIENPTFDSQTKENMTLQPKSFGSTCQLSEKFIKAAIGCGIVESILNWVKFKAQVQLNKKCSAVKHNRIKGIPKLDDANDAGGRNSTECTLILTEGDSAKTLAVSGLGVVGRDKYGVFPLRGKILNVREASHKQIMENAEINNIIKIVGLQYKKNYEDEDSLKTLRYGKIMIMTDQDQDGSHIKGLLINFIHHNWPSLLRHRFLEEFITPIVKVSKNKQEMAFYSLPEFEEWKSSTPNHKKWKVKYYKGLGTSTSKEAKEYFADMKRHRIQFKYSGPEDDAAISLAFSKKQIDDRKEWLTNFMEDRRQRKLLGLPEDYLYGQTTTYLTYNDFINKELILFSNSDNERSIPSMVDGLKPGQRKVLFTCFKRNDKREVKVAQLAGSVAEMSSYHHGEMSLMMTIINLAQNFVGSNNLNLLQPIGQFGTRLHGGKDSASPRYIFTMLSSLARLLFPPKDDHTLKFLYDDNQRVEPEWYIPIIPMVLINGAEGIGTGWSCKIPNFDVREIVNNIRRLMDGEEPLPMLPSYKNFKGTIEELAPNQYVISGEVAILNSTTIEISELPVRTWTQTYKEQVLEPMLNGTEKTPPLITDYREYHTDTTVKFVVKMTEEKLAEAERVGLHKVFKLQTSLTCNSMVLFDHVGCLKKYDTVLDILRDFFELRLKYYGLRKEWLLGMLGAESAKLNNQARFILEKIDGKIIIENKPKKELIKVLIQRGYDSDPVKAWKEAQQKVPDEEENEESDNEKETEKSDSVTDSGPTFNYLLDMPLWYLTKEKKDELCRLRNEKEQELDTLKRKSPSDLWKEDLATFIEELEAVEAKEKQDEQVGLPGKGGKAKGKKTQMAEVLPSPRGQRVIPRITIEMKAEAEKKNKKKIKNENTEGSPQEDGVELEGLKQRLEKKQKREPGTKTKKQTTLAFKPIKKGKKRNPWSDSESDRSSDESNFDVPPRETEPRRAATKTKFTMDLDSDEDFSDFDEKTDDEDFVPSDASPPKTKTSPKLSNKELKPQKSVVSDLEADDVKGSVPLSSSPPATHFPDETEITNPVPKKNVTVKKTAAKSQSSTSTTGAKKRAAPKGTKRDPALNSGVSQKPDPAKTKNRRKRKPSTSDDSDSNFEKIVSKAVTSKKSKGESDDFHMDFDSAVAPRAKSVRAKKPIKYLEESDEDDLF

By inhibition is commonly meant the drop in the measured response relative to a control, in per cent. Read a high inhibition as a response far below the control. Compound `Oc1ccccc1C=NNC(=S)NN=Cc1ccccc1O` [compound 2, 1,5-bis(salicylidene)thiocarbohydrazide] yielded an inhibition at 50 µM in assay [1] of 56%. In turn, `COc1cc([C@@H]2c3cc4c(cc3[C@@H](O[C@@H]3O[C@@H]5CO[C@@H](C)O[C@H]5[C@H](O)[C@H]3O)[C@H]3COC(=O)[C@H]23)OCO4)cc(OC)c1O` [etoposide] showed an inhibition at 50 µM in assay [2] of 70%.

These data come from publication PMC10054454, “Phenotypic Discovery of Thiocarbohydrazone with Anticancer Properties and Catalytic Inhibition of Human DNA Topoisomerase IIα” (Pharmaceuticals, 2023).
